Numbered stars: 1 amine (or outer) side, 2 acyl side, 3 side chain; on linkers, the order of the positions; unused ones are H or OH. Square brackets hold non-standard residues; d marks the D form. Peptide text beside a SMILES is read from it. * marks the point of attachment. X4 = O=C1Nc2ccccc2C1C[C@@H](N[*:1])C(=O)[*:2]; dGly(2-thienyl) = N[C@@H](C(=O)O)c1cccs1; X7 = O=C([C@H](N[*:1])c1ccco1)[*:2]; dCya = N[C@H](CS(=O)(=O)O)C(=O)O; Met(O) = CS(=O)CC[C@H](N)C(=O)O; Gly(N-cPent) = O=C(O)CNC1CCCC1; dPen = CC(C)(S)[C@@H](N)C(=O)O; dPhg = N[C@@H](C(=O)O)c1ccccc1; NMeM = CN[C@@H](CCSC)C(=O)O; N(iPr)Gly = CC(C)NCC(=O)O; Nle = CCCC[C@H](N)C(=O)O; Orn = NCCC[C@H](N)C(=O)O; Nva = CCC[C@H](N)C(=O)O; Aib = CC(C)(N)C(=O)O; βAla = NCCC(=O)O; For = O=C*

This experiment addresses T1, endothelin receptor (membrane of smooth muscle tissue of porcine aorta) (Sus scrofa, UniProt Q29010).
T1 construct: from tissue; host or cells: smooth muscle tissue of porcine aorta (membrane fraction)
T1 sequence (Q29010 21-427): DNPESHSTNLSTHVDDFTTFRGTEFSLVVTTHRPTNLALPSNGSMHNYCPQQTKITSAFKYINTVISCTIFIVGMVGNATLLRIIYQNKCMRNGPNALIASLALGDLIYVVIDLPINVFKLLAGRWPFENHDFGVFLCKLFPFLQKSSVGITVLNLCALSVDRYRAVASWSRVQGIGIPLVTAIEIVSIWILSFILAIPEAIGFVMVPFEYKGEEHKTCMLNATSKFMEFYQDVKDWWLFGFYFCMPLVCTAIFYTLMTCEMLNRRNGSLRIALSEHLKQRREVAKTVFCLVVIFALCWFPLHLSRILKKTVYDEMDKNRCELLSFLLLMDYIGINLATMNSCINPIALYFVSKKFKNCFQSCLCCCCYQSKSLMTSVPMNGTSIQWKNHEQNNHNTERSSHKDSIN
Nature of the experiment: Endothelin binding inhibition test (125I-endothelin-1, porcine aorta smooth muscle membrane). To be noted: 1.1 μM of the test compound, porcine aorta smooth muscle membrane, 25° C, 4 hours; for inhibition at 1.1 µM: read-out: 125I-endothelin-1 binding inhibition, Inhibition (%). The procedure:
Endothelin binding inhibition test
The smooth muscle tissue of porcine aorta was homogenized in a buffer solution of 10 mM MOPS, pH 7.4, at 4° C. by a polytron. To the homogenate, sucrose was added to a concentration of 20%, and the mixture was centrifuged at 1,000×g for 15 minutes, and the supernatant was further centrifuged at 10,000×g for 15 minutes. The supernatant thereof was further centrifuged at 90,000×g for 40 minutes. The membrane precipitate thereby obtained was suspended in a buffer solution of 5 mM HEPES/Tris, pH 7.4, at a concentration of 25 mg/ml.
Then, 16 μl of this membrane suspension was added to 340 μl of 50 mM Tris/HCl buffer, pH 7.4, containing 10 μM calcium chloride, 10 μM magnesium chloride, 0.1 mM PMSF, 1 μM pepstatin A, 2 μM leupeptin, 1 mM 1,10-phenanthroline and 0.1% bovine serum albumin. To this suspension, 4 μl of (A) endothelin-1 (for nonspecific binding: 0.2 μM as the final concentration), (B) buffer solution A (for total control binding), or (C) a test compound (1.1 μM as the final concentration), was added. Further, to each suspension, 40 μl of ^125 I-endothelin-1 (12000-18000 cpm) was added. These mixtures were incubated at 25° C for 4 hours, then subjected to filtration on a glass filter GF/C and then washed with 5 mM HEPES/Tris, pH 7.4, containing 0.3% bovine serum albumin. Then, the radioactivity trapped by the glass filter was measured, and the ^125 I-endothelin-1 binding inhibition D (%) at 1.1 μM of the test compound was determined by the following equation. [formula] Each test was performed in triplicate.

As a reminder, the inhibition is the relative decrease from the control value, in per cent. Consider `CC(C)C[C@@H]1NC(=O)[C@@H](C(C)C)NC(=O)CNC(=O)[C@@H](CC(=O)O)NC(=O)[C@@H](Cc2c[nH]c3ccccc23)NC1=O` [Example 11, cyclo(-DTrp-DAsp-Gly-DVal-Leu-)] (cyclo(G[dV]L[dW][dD])), for which the inhibition at 1.1 µM amounted to 74%.

`CSCC[C@H]1C(=O)N[C@H](C(C)C)C(=O)N[C@@H](CC(C)C)C(=O)N[C@H](Cc2c[nH]c3ccccc23)C(=O)N[C@H](CC(=O)O)C(=O)N1C` [Example 70, cyclo(-DTrp-DAsp-MeMet-DVal-Leu-)] (cyclo(L[dW][dD][NMeM][dV])): the inhibition at 1.1 µM was 85%.

`CC(C)C[C@@H]1NC(=O)[C@@H](c2ccco2)NC(=O)[C@@H]2CCCN2C(=O)[C@@H](CC(=O)O)NC(=O)[C@@H](Cc2c[nH]c3ccccc23)NC1=O` [Example 80, cyclo(-DTrp-DAsp-Pro-DFug-Leu-)] (cyclo(L[dW][dD]P[X7])): the inhibition at 1.1 µM worked out at 83%.

With “cyclo(-DTrp(CHO)-DCys(O3 Na)-Pro-DThg-Leu-) [Example 75]”, the “125I-endothelin-1 binding inhibition, Inhibition (%)” value came to 87%.

Turning to `CC(C)C[C@@H]1NC(=O)[C@@H](C(C)C)NC(=O)[C@H](Cc2ccccc2)NC(=O)[C@@H](CC(=O)O)NC(=O)[C@@H](Cc2c[nH]c3ccccc23)NC1=O` [Example 48, cyclo(-DTrp-DAsp-Phe-DVal-Leu-)] (cyclo(F[dV]L[dW][dD])), the inhibition at 1.1 µM amounted to 71%.

Take cyclo([dW][dD]P[dV]L) [Example 30]: the “125I-endothelin-1 binding inhibition, Inhibition (%)” value amounted to 72%.

`CCC[C@@H]1NC(=O)[C@@H](C(C)C)NC(=O)[C@@H]2CCCN2C(=O)[C@@H](CC(=O)O)NC(=O)[C@@H](Cc2cn(C=O)c3ccccc23)NC1=O` [Example 56, cyclo(-DTrp(CHO)-DAsp-Pro-DVal-Nva-)] (cyclo([Nva][dW](For)[dD]P[dV])): the inhibition at 1.1 µM came to 84%.

Turning to `CC(C)C[C@@H]1NC(=O)[C@@H](C(C)C)NC(=O)[C@H](C(C)C)NC(=O)[C@@H](CC(=O)O)NC(=O)[C@@H](Cc2c[nH]c3ccccc23)NC1=O` [Example 44, cyclo(-DTrp-DAsp-Val-DVal-Leu-)] (cyclo(L[dW][dD]V[dV])), the inhibition at 1.1 µM came to 56%.

On to `CSCC[C@@H]1NC(=O)[C@@H](CC(=O)O)NC(=O)[C@@H](Cc2cn(C=O)c3ccccc23)NC(=O)[C@H](CC(C)C)NC(=O)[C@@H](C(C)C)NC1=O` [Example 55, cyclo(-DTrp(CHO)-DAsp-Met-DVal-Leu-)] (cyclo(L[dW](For)[dD]M[dV])), for which the inhibition at 1.1 µM came out at 81%.

`CC(C)C[C@@H]1NC(=O)[C@@H](C(C)C)NC(=O)[C@H](CCCNC(=N)N)NC(=O)[C@@H](CC(=O)O)NC(=O)[C@@H](Cc2c[nH]c3ccccc23)NC1=O` [Example 19, cyclo(-DTrp-DAsp-Arg-DVal-Leu-)] (cyclo(L[dW][dD]R[dV])): the inhibition at 1.1 µM was found to be 70%.

Consider `CC(C)C[C@@H]1NC(=O)[C@@H](C(C)(C)S)NC(=O)[C@@H]2CCCN2C(=O)[C@@H](CC(=O)O)NC(=O)[C@@H](Cc2c[nH]c3ccccc23)NC1=O` [Example 60, cyclo(-DTrp-DAsp-Pro-DPen-Leu-)] (cyclo(L[dW][dD]P[dPen])), for which the inhibition at 1.1 µM is 79%.

`CC(C)C[C@@H]1NC(=O)[C@@H](C(C)C)NC(=O)[C@H](CC[S+](C)[O-])NC(=O)[C@@H](CC(=O)O)NC(=O)[C@@H](Cc2cn(C=O)c3ccccc23)NC1=O` (stereo partly drawn) [Example 58, cyclo(-DTrp(CHO)-DAsp-Met(O)-DVal-Leu-)] (cyclo(L[dW](For)[dD][Met(O)][dV])): the inhibition at 1.1 µM is 84%.

In the case of `CC(C)C[C@@H]1NC(=O)[C@@H](C(C)C)NC(=O)C(C)(C)NC(=O)[C@@H](CC(=O)O)NC(=O)[C@@H](Cc2c[nH]c3ccccc23)NC1=O` [Example 61, cyclo(-DTrp-DAsp-Aib-DVal-Leu-)] (cyclo([Aib][dV]L[dW][dD])), the inhibition at 1.1 µM is 66%.

With `CC(C)C[C@@H]1NC(=O)[C@@H](CC(C)C)NC(=O)[C@H](C)NC(=O)[C@@H](CC(=O)O)NC(=O)[C@@H](Cc2c[nH]c3ccccc23)NC1=O` [Example 28, cyclo(-DTrp-DAsp-Ala-DLeu-Leu-)] (cyclo(A[dL]L[dW][dD])), the inhibition at 1.1 µM amounted to 51%.

As for `CC(C)C[C@@H]1NC(=O)[C@@H](C(C)C)NC(=O)[C@H](CO)NC(=O)[C@@H](CCC(=O)O)NC(=O)[C@@H](Cc2c[nH]c3ccccc23)NC1=O` [Example 1, cyclo(-DTrp-DGlu-Ser-DVal-Leu-)] (cyclo(L[dW][dE]S[dV])), the inhibition at 1.1 µM is 19%.

Turning to `CC(C)C[C@@H]1NC(=O)[C@@H](c2cccs2)NC(=O)CN(C2CCCC2)C(=O)[C@@H](CC(=O)O)NC(=O)[C@@H](Cc2c[nH]c3ccccc23)NC1=O` [Example 73, cyclo(-DTrp-DAsp-CpGly-DThg-Leu-)] (cyclo(L[dW][dD][Gly(N-cPent)][dGly(2-thienyl)])), the inhibition at 1.1 µM was 85%.

For the compound `CCC[C@@H]1NC(=O)[C@@H](C(C)C)NC(=O)[C@@H]2CCCN2C(=O)[C@@H](CC(=O)O)NC(=O)[C@@H](Cc2c[nH]c3ccccc23)NC1=O` [Example 45, cyclo(-DTrp-DAsp-Pro-DVal-Nva-)] (cyclo([Nva][dW][dD]P[dV])), the inhibition at 1.1 µM worked out at 85%.

As for `CCCC[C@@H]1NC(=O)[C@@H](C(C)C)NC(=O)[C@@H]2CCCN2C(=O)[C@@H](CS(=O)(=O)O)NC(=O)[C@@H](Cc2c[nH]c3ccccc23)NC1=O` [Example 5, cyclo(-DTrp-DCys(O3 Na)-Pro-DVal-Nle-)] (cyclo([Nle][dW][dCya]P[dV])), the inhibition at 1.1 µM is 81%.

As for `CC(C)C[C@@H]1NC(=O)[C@@H](C(C)C)NC(=O)[C@H](CC(=O)O)NC(=O)[C@@H](CC(=O)O)NC(=O)[C@@H](Cc2c[nH]c3ccccc23)NC1=O` [Example 22, cyclo(-DTrp-DAsp-Asp-DVal-Leu-)] (cyclo(D[dV]L[dW][dD])), the inhibition at 1.1 µM came out at 75%.

Consider `CC(C)C[C@@H]1NC(=O)[C@@H](C(C)C)NC(=O)CCNC(=O)[C@@H](CC(=O)O)NC(=O)[C@@H](Cc2c[nH]c3ccccc23)NC1=O` [Example 66, cyclo(-DTro-DAsp-β-Ala-DVal-Leu-)] (cyclo(L[dW][dD][βAla][dV])), for which the inhibition at 1.1 µM is 38%.

Turning to `CC(C)C[C@@H]1NC(=O)[C@@H](C(C)C)NC(=O)[C@H](CCCN)NC(=O)[C@@H](CC(=O)O)NC(=O)[C@@H](Cc2c[nH]c3ccccc23)NC1=O` [Example 20, cyclo(-DTrp-DAsp-Orn-DVal-Leu-)] (cyclo(L[dW][dD][Orn][dV])), the inhibition at 1.1 µM came to 65%.

In the case of `CC(C)C[C@@H]1NC(=O)[C@@H](C(C)C)NC(=O)[C@@H]2CCCN2C(=O)[C@@H](CCC(=O)O)NC(=O)[C@@H](Cc2c[nH]c3ccccc23)NC1=O` [Example 10, cyclo(-DTrp-DGlu-Pro-DVal-Leu-)] (cyclo(L[dW][dE]P[dV])), the inhibition at 1.1 µM is 54%.

In the case of `CC(C)C[C@@H]1NC(=O)[C@@H](C(C)C)NC(=O)[C@H]([C@@H](C)O)NC(=O)[C@@H](CC(=O)O)NC(=O)[C@@H](Cc2c[nH]c3ccccc23)NC1=O` [Example 27, cyclo(-DTrp-DAsp-Thr-DVal-Leu-)] (cyclo(L[dW][dD]T[dV])), the inhibition at 1.1 µM was 66%.

For the compound `CC(C)C[C@@H]1NC(=O)[C@@H](c2ccccc2)NC(=O)[C@@H]2CCCN2C(=O)[C@@H](CC(=O)O)NC(=O)[C@@H](Cc2c[nH]c3ccccc23)NC1=O` [Example 34, cyclo(-DTrp-DAsp-Pro-DPhg-Leu-)] (cyclo(L[dW][dD]P[dPhg])), the inhibition at 1.1 µM turned out to be 83%.

Turning to `CC(C)C[C@@H]1NC(=O)[C@@H](C(C)C)NC(=O)[C@@H]2CCCN2C(=O)[C@@H](CC(=O)O)NC(=O)[C@@H](CC2C(=O)Nc3ccccc32)NC1=O` (stereo partly drawn) [Example 88, cyclo(-DTrp(O)-Dsp-Pro-DVal-Leu-)] (cyclo(L[X4][dD]P[dV])), the inhibition at 1.1 µM was 78%.

For the compound `CC(C)C[C@@H]1NC(=O)[C@@H](c2cccs2)NC(=O)CN(CC(=O)O)C(=O)[C@@H](CC(=O)O)NC(=O)[C@@H](Cc2c[nH]c3ccccc23)NC1=O` [Example 83, cyclo(-DTrp-DAsp-CmGly-DThg-Leu-)], the inhibition at 1.1 µM worked out at 82%.

Consider `CC(C)C[C@@H]1NC(=O)[C@@H](c2cccs2)NC(=O)CN(C(C)C)C(=O)[C@@H](CC(=O)O)NC(=O)[C@@H](Cc2c[nH]c3ccccc23)NC1=O` [Example 78, cyclo(-DTrp-DAsp-^i PrGly-DThg-Leu-)] (cyclo(L[dW][dD][N(iPr)Gly][dGly(2-thienyl)])), for which the inhibition at 1.1 µM was 85%.

For the origin of these results see US5114918A, “Endothelin antagonistic cyclic pentapeptides” (Banyu Pharmaceutical Co., Ltd., priority 1989, dated 1992).
